Measurements from the Biogen ADME set (Fang et al. 2023).
In brackets after ≈: the same amount, converted by molar mass.

Conditions: for aqueous solubility: pH 6.8

Compound | MDR1-MDCK efflux ratio | intrinsic clearance, human liver microsomes [mL/min/kg] | intrinsic clearance, rat liver microsomes [mL/min/kg] | aqueous solubility [µg/mL] | fraction unbound, human plasma | fraction unbound, rat plasma
CNc1ccc(/C=C/c2ccc(OCCOCCOCCF)nc2)cc1 | 0.533 | 253 | 564 | – | – | –
Cc1ccc(-n2nc(C(=O)N3CC(O)C3)c3c2CCCC3)cc1 | 5.67 | 53.3 | 182 | 36.5 (≈ 117 µM) | – | –
CCCn1ncc2[nH]c(C3CCCCC3)nc21 | 1.26 | 19.9 | 83.7 | 22.4 (≈ 96.5 µM) | – | –
O=c1[nH]c2ccccc2n1C1CCN(Cc2nc(Cc3ccccc3)no2)CC1 | – | 69.7 | 857 | – | – | –
CC(C)c1noc2nc(C3CC3)cc(C(=O)N3CCN(C)C(=O)C3)c12 | 40.6 | 7.73 | 20.8 | 36.1 (≈ 106 µM) | – | –
Cc1c(C(=O)Nc2ccc(N3CCC(N4CCOCC4)CC3)c(C#N)c2)cnn1-c1ccc(Cl)cc1 | 11.5 | 80.7 | 294 | – | – | –
COc1cc2nc(-c3cc(F)ccc3O)nc(N[C@@H]3CNC[C@H]3C(C)(C)O)c2cc1OC.Cl | – | – | – | – | 0.00076 | 0.0015
O=C(NCCCn1ccnc1)N1CC2(CCCC2)c2ccccc21 | – | 68.9 | 747 | 63.1 (≈ 194 µM) | – | –
O=C(Nc1nccs1)c1c2c(nc3ccccc13)CCC2 | 1.44 | 13.2 | 477 | 6.78 (≈ 23 µM) | – | –
Cc1cc2cc(C(=O)N(Cc3ccc4c(c3)OCO4)C3CC3)ccc2o1 | 0.28 | 127 | 1730 | 11.7 (≈ 33.6 µM) | – | –
NC(=O)CN1CCC(COc2ccccc2C(F)(F)F)CC1 | 0.524 | 12.9 | 1110 | – | – | –
CCc1noc(COc2c(C)ccnc2Cl)n1 | – | – | – | 23.3 (≈ 91.8 µM) | – | –
O=C(c1ccc(F)cc1)N1CCN(CC(=O)N2CCCC2=O)CC1 | 10.4 | ≤ 4.74 | 14.1 | 94.8 (≈ 284 µM) | – | –
Nc1nc(-c2ccccc2)nc2nc(C3CCCN(CC(=O)N4CCCC4)C3)ccc12 (centres undefined) | 12.5 | 5.81 | 186 | 68.6 (≈ 165 µM) | – | –
COc1ccccc1-c1cc(C(C)(C)C)nc(-c2ncccn2)n1 | 1.98 | 22.7 | 169 | – | – | –
CC1(C)CN(C(=O)C2(C(=O)N3CC(C)(C)C3(C)C)CCC2)C1(C)C | 2.4 | 304 | 1210 | 75 (≈ 224 µM) | – | –
COc1ccccc1/C=C/CN1CCCC2(C1)OCCO2 | 0.549 | 17.7 | 2180 | – | – | –
O=C(CN1CCC(c2ccccc2)CC1)N1CCNC1=O | 1.06 | ≤ 4.74 | 65.2 | 49.1 (≈ 171 µM) | – | –
Cc1ccc(CCNC(=O)c2ccncc2)o1 | 0.705 | ≤ 4.74 | 52.3 | 29.3 (≈ 127 µM) | – | –

Compound | MDR1-MDCK efflux ratio | intrinsic clearance, human liver microsomes [mL/min/kg] | intrinsic clearance, rat liver microsomes [mL/min/kg] | aqueous solubility [µg/mL] | fraction unbound, human plasma | fraction unbound, rat plasma
COc1cc(OC)c(OC)cc1CNC(C)(C)C | 4.78 | ≤ 4.74 | 110 | – | – | –
COC(=O)N1CCCN(C(=O)c2ccc(-c3ccccc3Cl)o2)CC1 | 0.661 | 174 | 4850 | 58.9 (≈ 162 µM) | – | –
Cc1cc(OCCCS(C)(=O)=O)cc(C)c1-c1cccc(COc2ccc3c(c2)OC[C@@H]3CC(=O)O)c1 | 6.84 | 5.67 | 28.3 | – | – | –
CSC1(CNC(=O)N2CCC=C(c3ccccc3)C2)CCOCC1 | 1.61 | 120 | 2750 | – | – | –
COc1ccccc1CNC(=O)C(C)N1CCCN(c2ccccc2C#N)CC1 (centres undefined) | 1.51 | 2190 | 4020 | 46.9 (≈ 119 µM) | – | –
CNC(=O)C1(Cc2ccc(-c3cccnc3)cc2)CCN(Cc2ccccc2Cl)C1 (centres undefined) | 0.961 | 446 | 559 | – | 0.0244 | 0.0188
COc1ccc(Nc2nc(Cl)cc(Cl)n2)cc1 | – | 188 | 170 | – | – | –
Cc1csc(NC(=O)c2ccc(-c3ccncc3)cc2)n1 | 0.179 | 35.7 | 305 | 2.34 (≈ 7.92 µM) | – | –
COCCCNc1nnc(-c2ccncc2)s1 | 0.654 | 13.3 | 84.1 | – | – | –
CCCNS(=O)(=O)Nc1ncnc(OCCOc2ncc(Br)cn2)c1-c1ccc(Br)cc1 | 0.933 | 101 | 631 | – | – | –
OCCC1(CNc2ncc(Br)cn2)CC1 | 0.674 | 8.65 | 81.9 | – | – | –
Cc1occc1C(=O)NCC(=O)Nc1nc2cc(Cl)ccc2n1C | 1.31 | 9.49 | 195 | 27.2 (≈ 78.4 µM) | – | –
Cc1nc(Cl)cc(Nc2ccc3c(c2)N(C)C(=O)CO3)n1 | 0.746 | 34.6 | 63.2 | 30 (≈ 98.5 µM) | – | –
Cc1cc2c(=O)n3c(nc2s1)CCNCC3 | – | ≤ 4.74 | 67.5 | – | – | –
COCC(=O)N1CC[C@H](c2nnc(-c3ccc(C)cc3)o2)C1 | 1.36 | ≤ 4.74 | ≤ 10.7 | 52.7 (≈ 175 µM) | – | –
O=C(NCc1nnc2c(O)nccn12)C1CCCC1 | 1.22 | ≤ 4.74 | ≤ 10.7 | 41.8 (≈ 160 µM) | – | –
O=C(Nc1ccn(CC(F)F)n1)NC1CCN(C2CCCC2)CC1 | 34.7 | ≤ 4.74 | ≤ 10.7 | – | – | –
CC(C)(C)c1ccc(CN2CCC(C(N)=O)CC2)cc1 | 0.975 | ≤ 4.74 | 144 | 47.8 (≈ 174 µM) | – | –

Second part, the compound after the results:

MDR1-MDCK efflux ratio | intrinsic clearance, human liver microsomes [mL/min/kg] | intrinsic clearance, rat liver microsomes [mL/min/kg] | aqueous solubility [µg/mL] | fraction unbound, human plasma | fraction unbound, rat plasma | Compound
13 | 839 | 2400 | – | – | – | Cn1c(=O)c(C(=O)CSc2nc3ccccc3n2C)c(N)n(Cc2ccccc2)c1=O
1.62 | ≤ 4.74 | 31.6 | – | – | – | CCN(CC)CC(=O)Nc1ccc(Oc2ccc(C)nn2)cc1
0.723 | – | – | 0.42 (≈ 1.06 µM) | – | – | Cc1nc(-c2ccccc2)c(C(=O)Nc2ccc(Cl)c(C(F)(F)F)c2)s1
– | 197 | 2470 | – | – | – | N#Cc1nc(-c2ccccc2)oc1NCc1ccccc1
0.511 | 22 | 140 | – | – | – | Cc1ccc(C(=O)NCCc2ccc(F)cc2)o1
0.421 | 38.2 | 557 | 29.7 (≈ 119 µM) | – | – | Cc1cccc(C(=O)NCC#Cc2ccccc2)n1
– | – | – | 0.33 (≈ 1.08 µM) | – | – | Cc1cccc2c1Oc1nc(-c3ccccc3)[nH]c(=S)c1C2
0.727 | 1000 | 4270 | 4.5 (≈ 11.2 µM) | – | – | O=C(CCc1ccccc1)N1CCC(c2cccc(Cc3ccc(F)cc3)n2)CC1
47.6 | 329 | 1410 | 32.6 (≈ 106 µM) | – | – | CC(C)C[C@@H](C(N)=O)n1ccnc1-c1cccc2ccccc12
– | – | – | 56.1 (≈ 187 µM) | – | – | CCc1cccc(NC(=O)COC(=O)c2cnc(C)cn2)c1
0.247 | 84.8 | 491 | 4.9 (≈ 18.4 µM) | 0.032 | 0.0373 | COc1ccccc1C(=O)Nc1ccc2cc[nH]c2c1
0.652 | ≤ 4.74 | 72 | 23.9 (≈ 110 µM) | – | – | Cc1cccn(Cc2cccc(F)c2)c1=O
1.09 | 27.8 | 585 | 66.6 (≈ 177 µM) | – | – | O=C(NCCNc1ncccc1C(F)(F)F)c1cnc2ccccn2c1=O
28.9 | 9.01 | 25.9 | – | – | – | N[C@@H]1CCCN(c2c(/C=C3\SC(=O)NC3=O)cccc2-c2ccccc2)C1
0.927 | 9.98 | 69.2 | 46.5 (≈ 162 µM) | – | – | CN(C)C(=O)c1ccc(NC(=O)c2cccc(F)c2)cc1
0.613 | 19.9 | 225 | 45.1 (≈ 161 µM) | – | – | Cc1ccc(F)c(N(C#N)Cc2nccn2C(F)F)c1
26.3 | ≤ 4.74 | 45.2 | 74.1 | – | – | COc1cccc(C(=O)C[n+]2cc(-c3ccc(F)cc3)n(C)c2N)c1
– | 12.2 | 302 | – | – | – | Cc1cnccc1NC(=O)COc1ccccc1C#N
0.471 | 37.1 | 565 | – | – | – | O=c1c2ccccc2nc2n1CCN(Cc1ccc(F)cc1)CC2
– | – | – | 0.84 (≈ 2.9 µM) | – | – | O=C(c1cc(-c2ccccc2)[nH]n1)N1CCc2ccccc21
0.516 | – | – | 0.65 (≈ 2.14 µM) | – | – | CCN(c1ccc(C(C)C)cc1)S(=O)(=O)c1ccccc1
